Measured values published in publication PMC5404925, “Variation in olfactory neuron repertoires is genetically controlled and environmentally modulated” (eLife, 2017).

Key:
Olfr347 = target: T1, Olfr347 (Mus musculus, UniProt Q8VGK2); assay: CRE-luciferase reporter dose-response (Dual-Glo); type: cell-based; conditions: agonist; 1 nM to 1 mM, 4 h stimulation; RTP1S and M3-R co-expressed; Hana3A cells
T1 construct: gene Or1j18; full-length OR, probably N-terminal RHO tag (tag-only control), in HEK293T-derived Hana3A cells with RTP1S and M3-R
T1 sequence (Q8VGK2 1-312): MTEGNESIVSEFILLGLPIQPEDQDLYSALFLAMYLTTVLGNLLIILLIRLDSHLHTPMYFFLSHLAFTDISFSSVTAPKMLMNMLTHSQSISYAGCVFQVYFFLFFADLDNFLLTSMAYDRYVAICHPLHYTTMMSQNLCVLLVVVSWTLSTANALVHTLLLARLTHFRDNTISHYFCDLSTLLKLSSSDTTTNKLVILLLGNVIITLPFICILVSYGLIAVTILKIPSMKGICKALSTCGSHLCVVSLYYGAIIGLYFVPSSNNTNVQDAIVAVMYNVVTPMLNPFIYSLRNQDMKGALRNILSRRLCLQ

Olfr538 = target: T2, Olfr538 (Mus musculus, UniProt Q7TRT5); assay: CRE-luciferase reporter dose-response (Dual-Glo); type: cell-based; conditions: agonist; 1 nM to 1 mM, 4 h stimulation; RTP1S and M3-R co-expressed; Hana3A cells
T2 construct: gene Or13a24; full-length OR, probably N-terminal RHO tag (tag-only control), in HEK293T-derived Hana3A cells with RTP1S and M3-R
T2 sequence (Q7TRT5 1-310): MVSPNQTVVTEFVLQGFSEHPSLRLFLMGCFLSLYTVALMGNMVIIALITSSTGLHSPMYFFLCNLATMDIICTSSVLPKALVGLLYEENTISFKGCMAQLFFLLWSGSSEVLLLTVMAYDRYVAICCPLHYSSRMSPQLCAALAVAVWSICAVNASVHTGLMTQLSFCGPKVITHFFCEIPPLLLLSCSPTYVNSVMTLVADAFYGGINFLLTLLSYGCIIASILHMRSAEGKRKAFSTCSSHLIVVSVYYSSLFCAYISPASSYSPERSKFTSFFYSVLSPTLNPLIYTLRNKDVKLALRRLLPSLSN

C=C(C)[C@@H]1CC=C(C)C(=O)C1 [(R)-carvone]
CRE-luciferase reporter dose-response (Dual-Glo) (Olfr347): Dose-response curve for HEK293 cells expressing Olfr347 (black) challenged with increasing concentrations of (R)-carvone | CRE-luciferase reporter dose-response (Dual-Glo) (Olfr538): Olfr538 displayed a dose-dependent response to (R)-carvone
